From patent publication US8889712B2, “IAP antagonists” (Bristol-Myers Squibb Company, priority 2012, dated 2014)
Read-outs that look alike come from different tables or passages of the source.

Columns and labels:
XIAP BIR3 = target: T1, XIAP BIR3 (Homo sapiens, UniProt P98170); experiment: XIAP-BIR3/SMAC Homogeneous Time Resolved Fluorescence (HTRF) Assay; assay type: binding
T1 construct: His-BIR3 (241-356, XIAP)
In short: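 Competition HTRF between XIAP-BIR3 and SMAC; reaction 60 min at room temperature, then anti-6×His-terbium Fab detection for a further 30 min.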

XIAP BIR2-3 = target: T2, XIAP BIR2-3 (Homo sapiens, UniProt P98170, C202A/C213G); experiment: XIAP-BIR2-3 dimeric SMAC Peptide Homogeneous Time Resolved Fluorescence (HTRF) Assay; assay type: binding
T2 construct: His-BIR2-3 (125-356, C202A/C213G, XIAP)
Experimental: B. […] Assays were performed in black, flat-bottom, 384-well plates. […] Compounds were dissolved at 3 mM in dimethylsulfoxide (DMSO) and evaluated at eleven serially diluted concentrations. IC50 and Ki values were derived by non-linear regression analysis.

[1] = 1 nM N-His-BIR3 (241-356, XIAP), 5 nM fluorescein labeled SMAC peptide, HTRF signal, read-out: XIAP BIR3 IC50
[2] = 0.5 nM N-His-BIR2-3 (125-356, C202A/C213G, XIAP), 20 nM fluorescein labeled dimeric SMAC peptide, HTRF signal, read-out: XIAP BIR2-3 IC50

T1 sequence (P98170 241-356): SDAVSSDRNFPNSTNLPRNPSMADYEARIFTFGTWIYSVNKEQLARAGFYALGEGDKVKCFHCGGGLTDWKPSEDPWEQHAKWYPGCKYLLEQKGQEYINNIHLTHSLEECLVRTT
T2 sequence (P98170 125-356 C202A/C213G): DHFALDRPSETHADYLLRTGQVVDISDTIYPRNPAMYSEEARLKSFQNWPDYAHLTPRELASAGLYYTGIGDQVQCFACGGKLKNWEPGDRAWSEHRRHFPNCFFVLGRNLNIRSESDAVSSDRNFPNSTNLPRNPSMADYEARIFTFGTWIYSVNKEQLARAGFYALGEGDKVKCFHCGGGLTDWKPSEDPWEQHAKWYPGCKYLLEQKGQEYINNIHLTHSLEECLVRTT

| Structure (SMILES) | IC50 (XIAP BIR3; [1]) | IC50 (XIAP BIR2-3; [2]) | IC50 (XIAP BIR3) | IC50 (XIAP BIR2-3) |
| --- | --- | --- | --- | --- |
| CN[C@@H](C)C(=O)N[C@H](C(=O)N1C[C@@H](c2ccc3c(c2)CN(C(=O)[C@@H](NC(=O)[C@H](C)NC)C(C)(C)C)[C@H](C(=O)N[C@@H]2CCCc4ccccc42)C3)C[C@H]1C(=O)N[C@@H](Cc1ccccc1)C(=O)NCc1nccs1)C(C)(C)C [Example 67, (S)-2-((S)-3,3-Dimethyl-2-((S)-2-(methylamino)propanamido)butanoyl)-7-((3R,5S)-1-((S)-3,3-dimethyl-2-((S)-2-(methylamino)propanamido)butanoyl)-5-(((S)-1-oxo-3-phenyl-1-((thiazol-2-ylmethyl)amino)propan-2-yl)carbamoyl)pyrrolidin-3-yl)-N-((R)-1,2,3,4-tetrahydronaphthalen-1-yl)-1,2,3,4-tetrahydroisoquinoline-3-carboxamide] | 9.3 nM | 2.1 nM | – | – |
| CN[C@@H](C)C(=O)N[C@H](C(=O)N1C[C@@H](c2ccc3c(c2)CN(C(=O)[C@@H](NC(=O)[C@H](C)NC)C(C)(C)C)[C@H](C(=O)N[C@@H]2CCCc4ccccc42)C3)C[C@H]1C(=O)N[C@@H](Cc1ccccc1)C(=O)Nc1ccccc1)C(C)(C)C [Example 68, (S)-2-((S)-3,3-Dimethyl-2-((S)-2-(methylamino)propanamido)butanoyl)-7-((3R,5S)-1-((S)-3,3-dimethyl-2-((S)-2-(methylamino)propanamido)butanoyl)-5-(((S)-1-oxo-3-phenyl-1-(phenylamino)propan-2-yl)carbamoyl)pyrrolidin-3-yl)-N-((R)-1,2,3,4-tetrahydronaphthalen-1-yl)-1,2,3,4-tetrahydroisoquinoline-3-carboxamide] | – | – | 4.9 nM | 1.3 nM |
| CN[C@@H](C)C(=O)N[C@H](C(=O)N1C[C@@H](c2ccc3c(c2)CN(C(=O)[C@@H](NC(=O)[C@H](C)NC)C(C)(C)C)[C@H](C(=O)N[C@@H]2CCCc4ccccc42)C3)C[C@H]1C(=O)N[C@@H](Cc1ccccc1)C(=O)NCCC(C)C)C(C)(C)C [Example 69, (S)-2-((S)-3,3-Dimethyl-2-((S)-2-(methylamino)propanamido)butanoyl)-7-((3R,5S)-1-((S)-3,3-dimethyl-2-((S)-2-(methylamino)propanamido)butanoyl)-5-(((S)-1-(isopentylamino)-1-oxo-3-phenylpropan-2-yl)carbamoyl)pyrrolidin-3-yl)-N-((R)-1,2,3,4-tetrahydronaphthalen-1-yl)-1,2,3,4-tetrahydroisoquinoline-3-carboxamide] | 8.6 nM | 1.5 nM | – | – |
| CN[C@@H](C)C(=O)N[C@H](C(=O)N1C[C@@H](c2ccc3c(c2)CN(C(=O)[C@@H](NC(=O)[C@H](C)NC)C(C)(C)C)[C@H](C(=O)N[C@@H]2CCCc4ccccc42)C3)C[C@H]1C(=O)N[C@H](COC)Cc1ccccc1)C(C)(C)C [Example 75, (S)-2-((S)-3,3-Dimethyl-2-((S)-2-(methylamino)propanamido)butanoyl)-7-((3R,5S)-1-((S)-3,3-dimethyl-2-((S)-2-(methylamino)propanamido)butanoyl)-5-(((S)-1-methoxy-3-phenylpropan-2-yl)carbamoyl)pyrrolidin-3-yl)-N-((R)-1,2,3,4-tetrahydronaphthalen-1-yl)-1,2,3,4-tetrahydroisoquinoline-3-carboxamide] | 14.5 nM | 3 nM | – | – |
| CN[C@@H](C)C(=O)N[C@H](C(=O)N1C[C@@H](c2ccc3c(c2)CN(C(=O)[C@@H](NC(=O)[C@H](C)NC)C(C)(C)C)[C@H](C(=O)N[C@@H]2CCCc4ccccc42)C3)C[C@H]1C(=O)N[C@@H](Cc1ccccc1)C(=O)OC)C(C)(C)C [Example 76, (S)-Methyl 2-((2S,4R)-1-((S)-3,3-dimethyl-2-((S)-2-(methylamino)propanamido)butanoyl)-4-((S)-2-((S)-3,3-dimethyl-2-((S)-2-(methylamino)propanamido)butanoyl)-3-(((R)-1,2,3,4-tetrahydronaphthalen-1-yl)carbamoyl)-1,2,3,4-tetrahydroisoquinolin-7-yl)pyrrolidine-2-carboxamido)-3-phenylpropanoate] | – | – | 18.9 nM | 2.5 nM |
| CN[C@@H](C)C(=O)N[C@H](C(=O)N1C[C@@H](c2ccc3c(c2)CN(C(=O)[C@@H](NC(=O)[C@H](C)NC)C(C)(C)C)[C@H](C(=O)N[C@@H]2CCCc4ccccc42)C3)C[C@H]1C(=O)N[C@@H](Cc1ccccc1)C(=O)O)C(C)(C)C [Example 77, (S)-2-((2S,4R)-1-((S)-3,3-Dimethyl-2-((S)-2-(methylamino)propanamido)butanoyl)-4-((S)-2-((S)-3,3-dimethyl-2-((S)-2-(methylamino)propanamido)butanoyl)-3-(((R)-1,2,3,4-tetrahydronaphthalen-1-yl)carbamoyl)-1,2,3,4-tetrahydroisoquinolin-7-yl)pyrrolidine-2-carboxamido)-3-phenylpropanoic acid] | 1.7 nM | 0.8 nM | – | – |
| CN[C@@H](C)C(=O)N[C@H](C(=O)N1C[C@@H](c2ccc3c(c2)CN(C(=O)[C@@H](NC(=O)[C@H](C)NC)C(C)(C)C)[C@H](C(=O)N[C@@H]2CCCc4ccccc42)C3)C[C@H]1C(=O)N[C@@H](Cc1ccccc1)c1nnn[nH]1)C(C)(C)C [Example 78, (S)-2-((S)-3,3-Dimethyl-2-((S)-2-(methylamino)propanamido)butanoyl)-7-((3R,5S)-1-((S)-3,3-dimethyl-2-((S)-2-(methylamino)propanamido)butanoyl)-5-(((S)-2-phenyl-1-(1H-tetrazol-5-yl)ethyl)carbamoyl)pyrrolidin-3-yl)-N—((R)-1,2,3,4-tetrahydronaphthalen-1-yl)-1,2,3,4-tetrahydroisoquinoline-3-carboxamide] | 8.9 nM | 2.8 nM | – | – |
| CN[C@@H](C)C(=O)N[C@H](C(=O)N1C[C@@H](c2ccc3c(c2)CN(C(=O)[C@@H](NC(=O)[C@H](C)NC)C(C)(C)C)[C@H](C(=O)N[C@@H]2CCCc4ccccc42)C3)C[C@H]1C(=O)N[C@@H](Cc1ccccc1)c1nnc(C)o1)C(C)(C)C [Example 79, (S)-2-((S)-3,3-Dimethyl-2-((S)-2-(methylamino)propanamido)butanoyl)-7-((3R,5S)-1-((S)-3,3-dimethyl-2-((S)-2-(methylamino)propanamido)butanoyl)-5-(((S)-1-(5-methyl-1,3,4-oxadiazol-2-yl)-2-phenylethyl)carbamoyl)pyrrolidin-3-yl)-N—((R)-1,2,3,4-tetrahydronaphthalen-1-yl)-1,2,3,4-tetrahydroisoquinoline-3-carboxamide] | 16.7 nM | 3.4 nM | – | – |
| CN[C@@H](C)C(=O)N[C@H](C(=O)N1C[C@@H](c2ccc3c(c2)CN(C(=O)[C@@H](NC(=O)[C@H](C)NC)C(C)(C)C)[C@H](C(=O)N[C@@H]2CCCc4ccccc42)C3)C[C@H]1C(=O)N[C@@H](Cc1ccccc1)c1noc(C)n1)C(C)(C)C [Example 80, (S)-2-((S)-3,3-Dimethyl-2-((S)-2-(methylamino)propanamido)butanoyl)-7-((3R,5S)-1-((S)-3,3-dimethyl-2-((S)-2-(methylamino)propanamido)butanoyl)-5-(((S)-1-(5-methyl-1,2,4-oxadiazol-3-yl)-2-phenylethyl)carbamoyl)pyrrolidin-3-yl)-N—((R)-1,2,3,4-tetrahydronaphthalen-1-yl)-1,2,3,4-tetrahydroisoquinoline-3-carboxamide] | 7.3 nM | 2.6 nM | – | – |
| CN[C@@H](C)C(=O)N[C@H](C(=O)N1C[C@@H](c2ccc3c(c2)CN(C(=O)[C@@H](NC(=O)[C@H](C)NC)C(C)(C)C)[C@H](C(=O)N[C@@H]2CCCc4ccccc42)C3)C[C@H]1C(=O)N[C@@H](Cc1ccccc1)c1ncc(C)o1)C(C)(C)C [Example 81, (S)-2-((S)-3,3-Dimethyl-2-((S)-2-(methylamino)propanamido)butanoyl)-7-((3R,5S)-1-((S)-3,3-dimethyl-2-((S)-2-(methylamino)propanamido)butanoyl)-5-(((S)-1-(5-methyloxazol-2-yl)-2-phenylethyl)carbamoyl)pyrrolidin-3-yl)-N—((R)-1,2,3,4-tetrahydronaphthalen-1-yl)-1,2,3,4-tetrahydroisoquinoline-3-carboxamide] | 13.5 nM | 2.6 nM | – | – |
| CN[C@@H](C)C(=O)N[C@H](C(=O)N1Cc2cc([C@H]3C[C@@H](C(=O)N[C@@H](Cc4ccc5ccccc5c4)C(=O)OC)N(C(=O)[C@@H](NC(=O)[C@H](C)NC)C(C)(C)C)C3)ccc2C[C@H]1C(=O)N[C@@H](Cc1ccc2ccccc2c1)C(=O)OC)C(C)(C)C [Example 82, (S)-Methyl 2-((2S,4R)-1-((S)-3,3-dimethyl-2-((S)-2-(methylamino)propanamido)butanoyl)-4-((S)-2-((S)-3,3-dimethyl-2-((S)-2-(methylamino)propanamido)butanoyl)-3-(((S)-1-methoxy-3-(naphthalen-2-yl)-1-oxopropan-2-yl)carbamoyl)-1,2,3,4-tetrahydroisoquinolin-7-yl)pyrrolidine-2-carboxamido)-3-(naphthalen-2-yl)propanoate] | 111 nM | 68.2 nM | – | – |
| CN[C@@H](C)C(=O)N[C@H](C(=O)N1Cc2cc([C@H]3C[C@@H](C(=O)N[C@@H](Cc4ccc5ccccc5c4)C(=O)O)N(C(=O)[C@@H](NC(=O)[C@H](C)NC)C(C)(C)C)C3)ccc2C[C@H]1C(=O)N[C@@H](Cc1ccc2ccccc2c1)C(=O)O)C(C)(C)C [Example 83, (S)-2-((S)-7-((3R,5S)-5-(((S)-1-Carboxy-2-(naphthalen-2-yl)ethyl)carbamoyl)-1-((S)-3,3-dimethyl-2-((S)-2-(methylamino)propanamido)butanoyl)pyrrolidin-3-yl)-2-((S)-3,3-dimethyl-2-((S)-2-(methylamino)propanamido)butanoyl)-1,2,3,4-tetrahydroisoquinoline-3-carboxamido)-3-(naphthalen-2-yl)propanoic acid] | 19.2 nM | 26.2 nM | – | – |
